In patent US12275731B2, “Azaindole inhibitors of wild-type and mutant forms of LRRK2” (DANA-FARBER CANCER INSTITUTE, INC., priority 2018, dated 2025):

Legend:
Assay in all cases: KinomeScan profiling
Type in all cases: binding
[1] = molecular target: T1, NEK9 (Homo sapiens, UniProt Q8TD19); conditions: NEK9, 1 μM; read-out: % control
T1 sequence (Q8TD19 1-979): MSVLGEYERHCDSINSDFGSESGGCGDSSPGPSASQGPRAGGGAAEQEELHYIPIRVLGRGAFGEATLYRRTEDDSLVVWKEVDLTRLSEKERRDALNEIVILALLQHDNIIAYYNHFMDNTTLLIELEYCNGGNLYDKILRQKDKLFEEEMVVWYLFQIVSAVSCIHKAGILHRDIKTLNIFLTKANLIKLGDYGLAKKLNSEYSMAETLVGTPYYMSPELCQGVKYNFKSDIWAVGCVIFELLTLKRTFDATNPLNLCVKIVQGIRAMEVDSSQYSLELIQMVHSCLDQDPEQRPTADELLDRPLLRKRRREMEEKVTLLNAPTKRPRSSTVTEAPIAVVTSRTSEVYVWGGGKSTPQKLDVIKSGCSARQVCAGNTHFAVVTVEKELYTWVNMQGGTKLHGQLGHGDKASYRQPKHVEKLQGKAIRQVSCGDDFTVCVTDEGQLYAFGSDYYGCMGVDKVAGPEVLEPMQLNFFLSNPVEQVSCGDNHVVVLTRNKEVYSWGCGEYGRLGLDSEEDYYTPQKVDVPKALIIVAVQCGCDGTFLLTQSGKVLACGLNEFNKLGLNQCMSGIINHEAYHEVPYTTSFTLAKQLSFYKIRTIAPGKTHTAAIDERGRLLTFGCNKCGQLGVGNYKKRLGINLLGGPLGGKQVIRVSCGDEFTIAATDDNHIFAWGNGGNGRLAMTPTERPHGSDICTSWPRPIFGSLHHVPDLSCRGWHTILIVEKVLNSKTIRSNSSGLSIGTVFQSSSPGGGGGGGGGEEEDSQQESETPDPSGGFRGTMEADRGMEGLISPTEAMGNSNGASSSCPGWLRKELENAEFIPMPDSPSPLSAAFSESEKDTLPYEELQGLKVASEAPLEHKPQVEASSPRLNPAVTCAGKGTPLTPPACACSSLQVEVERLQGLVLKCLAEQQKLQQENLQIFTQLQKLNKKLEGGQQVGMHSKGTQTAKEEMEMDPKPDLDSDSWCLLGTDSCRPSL
Procedure, shortened: (§1)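 Test agents were profiled at a single concentration of 1 μM (DMSO vehicle) on a near-complete set of 468 kinases. Signal is reported relative to vehicle (100%) and a fully displacing control (0%).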

[2] = molecular target: T2, FLT3(K663Q) (Homo sapiens, UniProt P36888, K663Q); conditions: read-out: % control
T2 sequence (P36888 27-993 K663Q): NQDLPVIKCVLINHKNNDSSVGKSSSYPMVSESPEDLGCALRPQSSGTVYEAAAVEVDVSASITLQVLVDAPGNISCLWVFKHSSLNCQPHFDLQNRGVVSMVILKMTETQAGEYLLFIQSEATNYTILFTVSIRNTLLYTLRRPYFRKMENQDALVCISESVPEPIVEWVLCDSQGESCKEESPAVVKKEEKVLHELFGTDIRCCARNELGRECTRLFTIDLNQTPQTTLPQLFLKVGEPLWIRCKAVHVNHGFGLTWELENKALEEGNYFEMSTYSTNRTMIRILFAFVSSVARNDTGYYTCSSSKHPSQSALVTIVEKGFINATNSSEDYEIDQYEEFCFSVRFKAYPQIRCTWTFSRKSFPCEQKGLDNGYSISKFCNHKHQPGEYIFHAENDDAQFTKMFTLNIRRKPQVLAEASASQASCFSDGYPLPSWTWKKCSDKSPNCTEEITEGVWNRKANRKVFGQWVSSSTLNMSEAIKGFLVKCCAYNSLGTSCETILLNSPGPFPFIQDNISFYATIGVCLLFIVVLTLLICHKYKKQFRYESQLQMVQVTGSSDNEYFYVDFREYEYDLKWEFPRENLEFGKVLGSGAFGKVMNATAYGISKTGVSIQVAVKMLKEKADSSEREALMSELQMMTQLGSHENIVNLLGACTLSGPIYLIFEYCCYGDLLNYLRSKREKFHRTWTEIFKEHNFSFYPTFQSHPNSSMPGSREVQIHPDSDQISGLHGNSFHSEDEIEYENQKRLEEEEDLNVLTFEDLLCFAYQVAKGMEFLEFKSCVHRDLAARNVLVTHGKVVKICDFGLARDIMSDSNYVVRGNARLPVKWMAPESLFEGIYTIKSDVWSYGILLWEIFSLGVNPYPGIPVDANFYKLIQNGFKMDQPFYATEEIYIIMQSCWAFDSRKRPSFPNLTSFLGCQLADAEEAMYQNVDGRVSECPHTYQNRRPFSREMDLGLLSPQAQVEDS
Procedure, shortened: as §1

[3] = molecular target: T3, PIK3CA(E542K) (Homo sapiens, UniProt P42336, E542K); conditions: read-out: % control
T3 construct: purchased KinomeScan® (panel service)
Procedure, shortened: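 1 μM cpd in DMSO; 468-kinase panel; readout RLU. % ctrl = (cpd − pos ctrl)/(neg ctrl − pos ctrl) ×100. Pos ctrl = 0%, DMSO = 100%. Hit cut-off <35%.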

[4] = molecular target: EGFR(L747-S752del, P753S) (Homo sapiens, UniProt P00533, DEL747-752/P753S); conditions: read-out: % control
Procedure, shortened: as §1

[5] = molecular target: ERK4 (Homo sapiens, UniProt P31152); conditions: ERK4, 1 μM; read-out: % control
Procedure, shortened: as §1

[6] = molecular target: MAP3K4 (Homo sapiens, UniProt Q9Y6R4); conditions: MAP3K4, 1 μM; read-out: % control
Procedure, shortened: as §1

[7] = molecular target: T4, PIM1 (Homo sapiens, UniProt P11309); conditions: PIM1, 1 μM; read-out: % control
T4 construct: purchased KinomeScan® (panel service)
Procedure, shortened: as §1

[8] = molecular target: BRK (Homo sapiens, UniProt Q13882); conditions: read-out: % control
Procedure, shortened: as §1

[9] = molecular target: HIPK3 (Homo sapiens, UniProt Q9H422); conditions: HIPK3, 1 μM; read-out: % control
Procedure, shortened: as §1

Chain of ERK4 (P31152 whole entry): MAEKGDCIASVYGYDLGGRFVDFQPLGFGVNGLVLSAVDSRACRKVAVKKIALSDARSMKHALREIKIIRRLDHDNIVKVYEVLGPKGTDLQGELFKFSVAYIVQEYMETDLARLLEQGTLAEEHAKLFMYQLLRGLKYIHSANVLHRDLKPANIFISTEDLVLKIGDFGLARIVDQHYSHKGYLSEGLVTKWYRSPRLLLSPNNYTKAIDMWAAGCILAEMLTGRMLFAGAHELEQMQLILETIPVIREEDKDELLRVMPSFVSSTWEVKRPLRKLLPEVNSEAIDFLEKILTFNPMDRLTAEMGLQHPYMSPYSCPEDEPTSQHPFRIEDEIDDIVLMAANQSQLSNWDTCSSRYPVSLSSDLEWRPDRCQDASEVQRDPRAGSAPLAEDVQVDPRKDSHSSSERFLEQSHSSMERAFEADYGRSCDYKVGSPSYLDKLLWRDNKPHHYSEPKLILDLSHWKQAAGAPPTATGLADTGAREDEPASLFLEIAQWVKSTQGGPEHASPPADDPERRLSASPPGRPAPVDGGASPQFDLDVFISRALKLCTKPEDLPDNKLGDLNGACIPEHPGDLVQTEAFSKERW
T3 sequence (P42336 whole entry E542K): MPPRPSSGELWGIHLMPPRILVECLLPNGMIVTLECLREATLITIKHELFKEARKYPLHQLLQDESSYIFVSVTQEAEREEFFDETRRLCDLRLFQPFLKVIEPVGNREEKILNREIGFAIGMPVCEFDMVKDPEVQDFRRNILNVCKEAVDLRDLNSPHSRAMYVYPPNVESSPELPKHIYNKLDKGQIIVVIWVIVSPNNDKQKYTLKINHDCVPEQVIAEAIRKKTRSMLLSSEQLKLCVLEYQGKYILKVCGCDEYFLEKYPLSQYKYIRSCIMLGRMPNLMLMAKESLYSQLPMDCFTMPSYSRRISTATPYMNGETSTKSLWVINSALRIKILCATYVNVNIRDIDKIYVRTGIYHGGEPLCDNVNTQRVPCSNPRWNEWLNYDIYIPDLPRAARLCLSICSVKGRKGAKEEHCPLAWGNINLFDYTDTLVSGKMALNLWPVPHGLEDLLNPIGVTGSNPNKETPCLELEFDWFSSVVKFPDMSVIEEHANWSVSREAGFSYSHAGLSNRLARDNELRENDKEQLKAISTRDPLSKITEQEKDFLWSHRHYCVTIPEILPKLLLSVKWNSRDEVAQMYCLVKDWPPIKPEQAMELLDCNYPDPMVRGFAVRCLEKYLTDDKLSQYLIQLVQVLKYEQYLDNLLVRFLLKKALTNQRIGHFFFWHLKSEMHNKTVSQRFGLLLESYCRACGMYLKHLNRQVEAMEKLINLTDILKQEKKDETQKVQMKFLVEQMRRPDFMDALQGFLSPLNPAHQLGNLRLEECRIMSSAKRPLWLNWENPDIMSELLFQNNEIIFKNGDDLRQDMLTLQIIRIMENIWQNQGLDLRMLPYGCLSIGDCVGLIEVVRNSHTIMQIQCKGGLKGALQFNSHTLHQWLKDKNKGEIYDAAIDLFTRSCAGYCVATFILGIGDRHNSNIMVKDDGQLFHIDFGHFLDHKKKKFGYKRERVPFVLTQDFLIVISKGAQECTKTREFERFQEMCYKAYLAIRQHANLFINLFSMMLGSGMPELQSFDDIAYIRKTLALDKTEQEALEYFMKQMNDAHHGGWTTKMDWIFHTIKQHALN
T4 sequence (P11309 whole entry): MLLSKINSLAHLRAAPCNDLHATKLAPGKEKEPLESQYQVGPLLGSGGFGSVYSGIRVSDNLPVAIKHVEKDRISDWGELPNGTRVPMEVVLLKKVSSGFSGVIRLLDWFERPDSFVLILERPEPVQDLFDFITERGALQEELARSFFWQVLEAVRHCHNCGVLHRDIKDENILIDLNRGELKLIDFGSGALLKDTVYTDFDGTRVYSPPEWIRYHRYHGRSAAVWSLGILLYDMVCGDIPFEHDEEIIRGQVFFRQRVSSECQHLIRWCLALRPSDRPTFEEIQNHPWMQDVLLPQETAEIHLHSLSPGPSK
Chain of BRK (Q13882 whole entry): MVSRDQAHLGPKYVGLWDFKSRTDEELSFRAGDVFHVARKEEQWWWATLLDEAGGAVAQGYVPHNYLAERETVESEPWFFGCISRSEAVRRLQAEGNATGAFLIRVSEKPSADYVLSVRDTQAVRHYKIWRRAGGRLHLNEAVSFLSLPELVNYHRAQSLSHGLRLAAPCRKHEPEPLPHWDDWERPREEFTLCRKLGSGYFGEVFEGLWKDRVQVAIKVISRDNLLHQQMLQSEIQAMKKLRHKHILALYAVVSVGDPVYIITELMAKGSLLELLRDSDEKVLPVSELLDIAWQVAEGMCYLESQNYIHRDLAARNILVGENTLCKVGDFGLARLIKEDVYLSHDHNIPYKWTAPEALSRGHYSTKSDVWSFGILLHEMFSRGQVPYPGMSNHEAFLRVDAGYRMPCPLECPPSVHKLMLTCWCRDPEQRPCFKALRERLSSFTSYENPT
Chain of HIPK3 (Q9H422 whole entry): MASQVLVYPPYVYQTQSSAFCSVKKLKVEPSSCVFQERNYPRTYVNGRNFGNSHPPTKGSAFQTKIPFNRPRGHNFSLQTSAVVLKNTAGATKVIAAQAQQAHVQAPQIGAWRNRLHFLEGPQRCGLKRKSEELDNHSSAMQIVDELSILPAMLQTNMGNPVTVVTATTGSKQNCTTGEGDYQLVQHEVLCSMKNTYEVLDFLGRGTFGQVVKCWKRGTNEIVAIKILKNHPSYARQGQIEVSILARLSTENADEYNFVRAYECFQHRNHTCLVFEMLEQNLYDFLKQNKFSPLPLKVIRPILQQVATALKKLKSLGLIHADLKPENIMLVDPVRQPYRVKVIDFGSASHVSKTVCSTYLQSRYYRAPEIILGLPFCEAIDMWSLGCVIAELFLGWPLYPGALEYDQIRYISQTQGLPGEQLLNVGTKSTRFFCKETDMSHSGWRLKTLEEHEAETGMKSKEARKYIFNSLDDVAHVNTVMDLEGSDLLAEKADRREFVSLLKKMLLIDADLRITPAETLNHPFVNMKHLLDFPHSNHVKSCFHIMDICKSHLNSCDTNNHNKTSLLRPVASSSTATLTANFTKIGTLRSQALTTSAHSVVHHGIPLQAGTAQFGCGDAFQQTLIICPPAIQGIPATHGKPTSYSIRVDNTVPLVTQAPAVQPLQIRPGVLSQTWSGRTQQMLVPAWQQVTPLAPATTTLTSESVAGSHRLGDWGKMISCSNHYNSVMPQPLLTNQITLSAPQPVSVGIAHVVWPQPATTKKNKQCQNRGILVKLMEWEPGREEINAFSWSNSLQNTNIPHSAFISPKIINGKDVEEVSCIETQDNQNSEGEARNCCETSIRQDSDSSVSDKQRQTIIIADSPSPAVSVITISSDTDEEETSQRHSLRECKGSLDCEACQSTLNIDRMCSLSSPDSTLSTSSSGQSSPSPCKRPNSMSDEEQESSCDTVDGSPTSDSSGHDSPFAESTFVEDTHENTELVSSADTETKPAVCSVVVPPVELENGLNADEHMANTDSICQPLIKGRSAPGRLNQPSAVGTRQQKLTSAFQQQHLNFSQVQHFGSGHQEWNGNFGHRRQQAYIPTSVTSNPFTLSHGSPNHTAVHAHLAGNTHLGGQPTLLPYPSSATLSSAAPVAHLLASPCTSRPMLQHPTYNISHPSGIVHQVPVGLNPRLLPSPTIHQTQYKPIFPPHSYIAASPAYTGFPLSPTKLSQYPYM
Chain of EGFR(L747-S752del, P753S) (P00533 with tags, fused parts or gaps DEL747-752/P753S): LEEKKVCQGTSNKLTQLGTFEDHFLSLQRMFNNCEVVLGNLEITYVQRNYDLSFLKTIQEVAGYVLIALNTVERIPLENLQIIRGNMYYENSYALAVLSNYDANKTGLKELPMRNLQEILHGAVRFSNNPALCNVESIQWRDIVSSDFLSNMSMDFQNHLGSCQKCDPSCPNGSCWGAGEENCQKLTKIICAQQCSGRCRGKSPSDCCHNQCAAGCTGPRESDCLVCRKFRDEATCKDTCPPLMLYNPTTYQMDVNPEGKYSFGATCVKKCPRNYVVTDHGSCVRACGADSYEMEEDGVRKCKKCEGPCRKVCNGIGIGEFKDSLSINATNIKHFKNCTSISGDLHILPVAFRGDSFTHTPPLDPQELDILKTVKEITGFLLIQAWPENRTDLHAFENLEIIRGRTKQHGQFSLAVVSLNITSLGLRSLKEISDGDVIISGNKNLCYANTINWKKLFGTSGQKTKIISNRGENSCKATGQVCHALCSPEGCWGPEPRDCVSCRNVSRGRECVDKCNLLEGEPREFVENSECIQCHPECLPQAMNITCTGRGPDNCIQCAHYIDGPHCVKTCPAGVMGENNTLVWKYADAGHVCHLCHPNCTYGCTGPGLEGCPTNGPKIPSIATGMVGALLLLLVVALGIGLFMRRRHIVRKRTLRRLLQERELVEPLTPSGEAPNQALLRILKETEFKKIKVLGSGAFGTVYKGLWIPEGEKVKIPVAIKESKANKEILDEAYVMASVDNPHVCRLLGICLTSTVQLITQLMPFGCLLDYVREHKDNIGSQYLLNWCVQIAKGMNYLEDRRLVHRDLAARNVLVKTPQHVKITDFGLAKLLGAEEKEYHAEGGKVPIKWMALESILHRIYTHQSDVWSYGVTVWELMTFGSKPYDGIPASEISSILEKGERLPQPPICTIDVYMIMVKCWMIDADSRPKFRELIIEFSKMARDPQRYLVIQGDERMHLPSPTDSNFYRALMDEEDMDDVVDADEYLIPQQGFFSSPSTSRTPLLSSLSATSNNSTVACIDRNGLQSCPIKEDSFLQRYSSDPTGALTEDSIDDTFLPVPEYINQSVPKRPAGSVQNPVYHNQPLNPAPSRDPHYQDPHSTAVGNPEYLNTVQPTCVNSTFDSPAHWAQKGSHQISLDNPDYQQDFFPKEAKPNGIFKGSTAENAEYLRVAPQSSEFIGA

| SMILES | remaining binding at 1 µM [1] [%] | remaining binding at 1 µM [2] [%] | remaining binding at 1 µM [3] [%] | remaining binding at 1 µM [4] [%] | remaining binding at 1 µM [5] [%] | remaining binding at 1 µM [6] [%] | remaining binding at 1 µM [7] [%] | remaining binding at 1 µM [8] [%] | remaining binding at 1 µM [9] [%] |
| --- | --- | --- | --- | --- | --- | --- | --- | --- | --- |
| CNc1c(-c2ccc(C(=O)N3CCC(N4CCOCC4)CC3)cc2)cnc2[nH]cc(Cl)c12 [Compound 96, (4-(3-chloro-4-(methylamino)-1H-pyrrolo[2,3-b]pyridin-5-yl)phenyl)(4-morpholinopiperidin-1-yl)methanone] | 100 | 15 | 100 | 77 | 94 | 68 | 100 | 78 | 79 |
| O=C(c1ccc(-c2cnc3[nH]cc(Cl)c3c2NC2CCCC2)cc1)N1CCC(N2CCOCC2)CC1 [Compound 101, (4-(3-chloro-4-(cyclopentylamino)-1H-pyrrolo[2,3-b]pyridin-5-yl)phenyl)(4-morpholinopiperidin-1-yl)methanone] | 98 | 28 | 98 | 100 | 93 | 71 | 95 | 86 | 100 |
| CNc1c(-c2cnn([C@H]3CCN(C(C)=O)C[C@@H]3F)c2)cnc2[nH]cc(Cl)c12 [Compound 77, 1-((3S,4S)-4-(4-(3-chloro-4-(methylamino)-1H-pyrrolo[2,3-b]pyridin-5-yl)-1H-pyrazol-1-yl)-3-fluoropiperidin-1-yl)ethan-1-one] | 100 | 15 | 100 | 92 | 90 | 91 | 95 | 95 | 85 |
